Results taken from patent US20170121683A1, “ARYL HYDROCARBON RECEPTOR DISRUPTION AND ENHANCEMENT” (priority 2015, published 2017).

What was measured:
[1] = system: H9 hESC-derived non-adherent hematopoietic progenitor cells; assay: Hematopoietic colony forming unit (CFU) assay (Example 1); type: cell-based, human
Description: FIG. 5A. H9 hESCs were differentiated as spin EB exposed to Stage I mesodermal induction media for 6 days and transferred to hemato-endothelial induction media with either DMSO, 1 μM SR-1, or 10 nM TCDD treatment for an additional 6 days. On day 12 of total differentiation, 50,000 non-adherent cells were obtained in each treatment group and seeded in Methocult H4436. Following 14 days of growth, colony-forming units (CFUs) were quantified and scored based on morphology. Data are represented as number of CFUs per 5×10^4 cells. FIG. 5B. Distribution of CFU morphology for DMSO-, SR-1-, and TCDD-treated H9 hESCs. *p<0.05 as compared to DMSO-treated H9 hESC (Student's t-test) and represent an average of three biological replicates with error bars representing SEM. CFU-GEMM: Colony-Forming Unit Granulocyte/Erythrocyte/Macrophage/Megakaryocyte; CFU-M: Colony-Forming Unit Macrophage; CFU-GM: Colony-Forming Unit-Granulocyte/Macrophage; CFU-E: Colony-Forming Unit Erythroid; BFU-E: Burst-Forming Unit-Erythroid.
Non-adherent, differentiated hematopoietic progenitor cells were harvested following 6 days growth as spin-EBs in Stage I conditions, followed by an additional 6 days growth in Stage II conditions. […] Plates were incubated in a 37° C. in a humidified atmosphere containing 5% CO2 for 14 days and were subsequently scored.

[2] = system: non-human primate iPSCs; conditions: Gori et al. Blood 2012; cited from earlier work
[3] = system: hESCs (H9); assay: Hemato-endothelial differentiation of hESCs, flow cytometry, fold change vs DMSO (Example 2); type: cell-based, human
Description: FIG. 7A. Schema of hESC differentiation into early hemato-endothelial cells as spin-embryoid bodies (spin-EBs). hESCs are made into spin-EBs at Day 0 and conditioned into mesoderm lineages for 6 days using defined cytokines (Stage 1). At Day 6, spin-EBs are transferred into hemato-endothelial culture media (Stage 2) to promote endothelial and hematopoietic cell differentiation. For these studies, cells are treated with either 1 μM SR-1, 10 nM TCDD, or DMSO vehicle control beginning at Day 6+0 with media exchanges and/or harvesting performed at Day 6+3, Day 6+6, and Day 6+9. FIG. 7B. Representative flow cytometry plots of one hESCs differentiation. Both adherent and non-adherent cell fractions are harvested at Day 6+3, Day 6+6, and Day 6+9 and assessed for endothelial cell (CD34^+CD31^+, CD34^+CD144^+) and hematopoietic progenitor cell (CD34^+CD43^+, CD34^+CD45^+) phenotypes. FIG. 7C. Fold change of the total percentage of each hemato-endothelial phenotype for SR-1 and TCDD treated hESCs normalized to matched DMSO treated controls. n=4-6, error bars represent SEM, *p<0.05 as compared to DMSO treated controls by student's t-test. N/A: Not applicable due to absence appreciable of CD34^+CD45^+ populations at Day 6+3 time point.
Single-cell adapted hESCs (H9) were maintained on irradiated mouse embryonic fibroblasts (MEF) in ES growth media, as previously described in Ferrell et al. Stem Cells. 2015; 33(4):1130-41. hESCs were allowed to differentiate as spin-embryoid bodies (EBs) as previously described in Ferrell et al. and Ng et al. Nat. Protoc. 2008; 3(5):768-776 (FIG. 7A). In brief, hESCs were plated at 3,000 cells/100 μL in a round-bottom 96-well plate using serum-free BPEL media supplemented with 20 ng/mL BMP4, 40 ng/mL SCF, and 20 ng/mL VEGF (all R&D Systems, Minneapolis, Minn.). Cells were centrifuged to form embryoid bodies (defined as Day 0) and were incubated for 6 additional days (defined as Day 6) to promote mesoderm induction. To differentiate early endothelial and hematopoietic progenitor cells, Day 6 EBs were transferred to pre-gelatinized 24-well plates (approx. 8-16 EBs/well) with BEL media supplemented with 40 ng/mL SCF, 40 ng/mL VEGF, […] thrombopoietin (all R&D Systems, Minneapolis, Minn.), 30 ng/mL IL-3, and 30 ng/mL IL-6 (both PeproTech, Rocky Hill, N.J.). To modulate AHR activity, EBs were treated at Day 6+0 with DMSO, 1 μM SR-1 (Cellagen Technologies, San Diego, Calif.), or 10 nM 2,3,7,8-tetrachlorodibenzo-p-dioxin (TCDD) (Sigma-Aldrich, St. Louis, Mo.). Media was exchanged every 3 days with small molecule and cytokine supplementation. At indicated time points, non-adherent cell fractions were collected and saved while the remaining adherent fractions were treated with 0.05% trypsin containing 2% chicken serum. Adherent cells were combined with the non-adherent fractions for analysis, unless otherwise stated.
The following additional antibodies were used (all anti-human): LFA-1 (CD11a/CD18)-APC-R700 (BD Biosciences), CD31-APC (eBioscience), CD33-APC (BD Biosciences), CD34-PECy7 (BD Biosciences), CD34-APC (BD Biosciences), CD41a-APC (BD Biosciences), CD43-APC (BD Biosciences), CD45-APC (BD Biosciences), CD56-PECy7 (BD Biosciences), CD56-BV421 (BD Biosciences), CD94-PerCP-Cy5.5 (BD Biosciences), CD117-PECy7 (BD Biosciences), CD117-APC (eBiosciences), CD144-APC (eBioscience). Samples were analyzed on either an LSRFortessa or LSRII flow cytometer (BD Biosciences). Gating was set relative to isotype controls of identical fluorophores. Data from flow cytometry was analyzed using FlowJo software (Treestar, Ashland, Oreg.).

Row | Structure (SMILES) | increase in total number of colonies relative to DMSO-treated control cells ([1]; non-adherent cells harvested at Day 12, 1 μM SR-1) [fold] | proportion of CFU-M and CFU-GM ([1]; non-adherent cells harvested at Day 12, 1 μM SR-1, relative to DMSO) | kinetics or quantity of CD34+ or CD34+CD31+ cells [2] | phenotypic CD34+CD45+ cells [2] | total number of colony-forming units (CFUs) [2] | total percentage of CD34+CD31+ cells, fold vs DMSO controls ([3]; Day 6+3, 1 μM SR-1) [fold] | total percentage of CD34+CD144+ cells, fold vs DMSO controls ([3]; Day 6+3, 1 μM SR-1) [fold] | total percentage of CD34+CD31+ hemato-endothelial cells, fold vs DMSO controls ([3]; Day 6+6, 1 μM SR-1) [fold] | total percentage of CD34+CD43+ hematopoietic progenitor cells, fold vs DMSO controls ([3]; Day 6+6, 1 μM SR-1) [fold] | CD34+CD45+ hematopoietic progenitor cells, fold change normalized to DMSO ([3]; Day 6+9, 10 nM TCDD) | total percent of CD34+CD31+ cells, fold change normalized to DMSO ([3]; Day 6+9, 10 nM TCDD) | total percent of CD34+CD43+ cells, fold change normalized to DMSO ([3]; Day 6+9, 10 nM TCDD) | total percent of CD34+CD144+ cells, fold change normalized to DMSO ([3]; Day 6+9, 10 nM TCDD) | total percent of CD34− hematopoietic cells ([3]; Day 6+9, 10 nM TCDD)
1 | CC(C)n1cnc2c(NCCc3ccc(O)cc3)nc(-c3csc4ccccc34)nc21 [SR-1, StemReginin-1] | 4 | increased proportion | no differences | increase | did not enhance | 1.58±0.28 | 1.71±0.22 | 1.62±0.12 | 1.36±0.12 | 1.40±0.11 | – | – | – | –
2 | Clc1cc2c(cc1Cl)Oc1cc(Cl)c(Cl)cc1O2 [TCDD, 2,3,7,8-tetrachlorodibenzo-p-dioxin] | – | – | – | – | – | – | – | – | – | 0.44±0.06 | 0.49±0.06 | 0.67±0.09 | 0.33±0.13 | increase
